Measurements: the supplement of paper PMC10307832

Experiments:
Assay in all cases: relative viability (nuclei count vs DMSO), 5 days (fraction); higher = more cells survive
Idelalisib + Foretinib = compound: CC[C@H](Nc1ncnc2[nH]cnc12)c1nc2cccc(F)c2c(=O)n1-c1ccccc1 [Idelalisib] + COc1cc2c(Oc3ccc(NC(=O)C4(C(=O)Nc5ccc(F)cc5)CC4)cc3F)ccnc2cc1OCCCN1CCOCC1 [Foretinib] (partner 0.25 µM)
Procedure, shortened: (§1)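 Values are medians from duplicate plates. Each reflects relative viability, defined as the nuclei count of treated wells over that of vehicle wells. Lung cancer cell lines in 1536-well plates were pin-tool dosed one day after seeding with one drug alone or with a fixed anchor-drug dose plus five library-drug doses (not always all listed) in √10 steps, then fixed, stained and imaged at 4× after 5 days.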

Idelalisib + Crizotinib = compound: CC[C@H](Nc1ncnc2[nH]cnc12)c1nc2cccc(F)c2c(=O)n1-c1ccccc1 [Idelalisib] + C[C@@H](Oc1cc(-c2cnn(C3CCNCC3)c2)cnc1N)c1c(Cl)ccc(F)c1Cl [Crizotinib] (partner 1 µM)
Procedure, shortened: as §1

Idelalisib + Vorinostat = compound: CC[C@H](Nc1ncnc2[nH]cnc12)c1nc2cccc(F)c2c(=O)n1-c1ccccc1 [Idelalisib] + O=C(CCCCCCC(=O)Nc1ccccc1)NO [Vorinostat] (partner 1 µM)
Procedure, shortened: as §1

Pemetrexed + Tozasertib = compound: Nc1nc2[nH]cc(CCc3ccc(C(=O)N[C@@H](CCC(=O)O)C(=O)O)cc3)c2c(=O)[nH]1 [Pemetrexed] + Cc1cc(Nc2cc(N3CCN(C)CC3)nc(Sc3ccc(NC(=O)C4CC4)cc3)n2)n[nH]1 [Tozasertib] (partner 0.1 µM)
Procedure, shortened: as §1

| Cell Line | relative viability (Idelalisib + Foretinib; first compound 0.04 µM) | relative viability (Idelalisib + Foretinib; first compound 0.1265 µM) | relative viability (Idelalisib + Foretinib; first compound 0.4 µM) | relative viability (Idelalisib + Foretinib; first compound 1.265 µM) | relative viability (Idelalisib + Foretinib; first compound 4 µM) | relative viability (Idelalisib + Crizotinib; first compound 0.04 µM) | relative viability (Idelalisib + Crizotinib; first compound 0.1265 µM) | relative viability (Idelalisib + Crizotinib; first compound 1.265 µM) | relative viability (Idelalisib + Crizotinib; first compound 4 µM) | relative viability (Idelalisib + Vorinostat; first compound 0.04 µM) | relative viability (Idelalisib + Vorinostat; first compound 0.1265 µM) | relative viability (Idelalisib + Vorinostat; first compound 0.4 µM) | relative viability (Idelalisib + Vorinostat; first compound 1.265 µM) | relative viability (Idelalisib + Vorinostat; first compound 4 µM) | relative viability (Pemetrexed + Tozasertib; first compound 0.002 µM) | relative viability (Pemetrexed + Tozasertib; first compound 0.006325 µM) | relative viability (Pemetrexed + Tozasertib; first compound 0.02 µM) | relative viability (Pemetrexed + Tozasertib; first compound 0.06325 µM) | relative viability (Pemetrexed + Tozasertib; first compound 0.2 µM) | relative viability (Idelalisib + Crizotinib; first compound 0.4 µM) |
| --- | --- | --- | --- | --- | --- | --- | --- | --- | --- | --- | --- | --- | --- | --- | --- | --- | --- | --- | --- | --- |
| HOP-62 | 1.15 | 1.05 | 1.15 | 1.15 | 1.1 | 0.944 | 0.964 | 0.806 | 1.03 | 0.669 | 0.66 | 0.576 | 0.619 | 0.491 | 0.334 | 0.306 | 0.409 | 0.368 | 0.349 | – |
| LC-2-ad | 0.978 | 0.857 | 0.733 | 0.943 | 0.85 | 0.427 | 0.415 | 0.439 | 0.508 | 0.798 | 0.702 | 0.683 | 0.791 | 0.703 | 0.378 | 0.45 | 0.43 | 0.296 | 0.259 | 0.447 |
| LCLC-97TM1 | 1.1 | 0.961 | 0.877 | 1.03 | 0.776 | 0.338 | 0.212 | 0.422 | 0.295 | 0.802 | 0.871 | 0.446 | 0.868 | 0.685 | 0.184 | 0.245 | 0.315 | 0.254 | 0.284 | – |
| LCLC-103H | 0.727 | 0.728 | 0.65 | 0.829 | 0.582 | 1.03 | 0.986 | 1.09 | 0.839 | 0.864 | 0.926 | 0.664 | 0.798 | 0.58 | 0.451 | 0.366 | 0.515 | 0.443 | 0.443 | 0.957 |
| LK-2 | 1.75 | 1.16 | – | 1.29 | 0.836 | 0.264 | 0.205 | 0.215 | 0.235 | 0.307 | 0.295 | 0.173 | 0.338 | 0.221 | 0.191 | 0.148 | 0.176 | 0.197 | 0.165 | – |
| LOU-NH91 | 1.03 | 0.912 | 0.888 | 0.803 | 0.864 | 0.791 | 0.711 | 0.68 | 0.727 | 0.998 | 0.899 | 0.794 | 0.726 | 0.91 | 0.656 | 0.676 | 0.706 | 0.54 | 0.366 | 0.677 |
| LU99A | 0.939 | 0.847 | 0.775 | 0.79 | 0.775 | 0.625 | 0.638 | 0.614 | 0.643 | 0.536 | 0.468 | 0.387 | 0.535 | 0.506 | 0.259 | 0.325 | 0.338 | 0.272 | 0.249 | 0.578 |
| LXF-289 | 0.946 | 0.979 | 0.928 | 1.14 | 0.951 | 0.839 | 0.818 | 0.909 | 0.825 | 0.878 | 0.759 | 0.781 | 0.783 | 0.764 | 0.165 | 0.19 | 0.194 | 0.163 | 0.183 | 0.778 |
| NCI-H23 | 1.2 | 1.1 | 0.766 | – | 0.859 | 0.723 | 0.56 | 0.533 | 0.387 | 0.674 | 0.657 | 0.395 | 0.317 | 0.62 | 0.311 | 0.36 | 0.514 | 0.347 | 0.395 | 0.277 |
| NCI-H322M | 1.22 | 1.1 | 0.792 | 0.841 | 0.908 | 1 | 0.842 | 0.687 | 0.809 | 1.03 | 0.993 | 0.799 | 0.899 | 0.911 | 0.513 | 0.505 | 0.486 | 0.504 | 0.452 | 0.792 |
| NCI-H358 | 0.782 | 0.701 | 0.554 | 0.652 | 0.734 | 0.646 | 0.579 | 0.549 | 0.516 | 0.643 | 0.63 | 0.588 | 0.567 | 0.593 | 0.116 | 0.141 | 0.108 | 0.102 | 0.0813 | 0.496 |
| NCI-H441 | 1.15 | 1.09 | 1.05 | 1.11 | 1.2 | 1.15 | 0.702 | 0.68 | 0.654 | 0.851 | 0.908 | – | 0.737 | 0.758 | 0.66 | 0.484 | 0.827 | 0.515 | 0.342 | – |
| NCI-H460 | 1.03 | 1.06 | 0.962 | 1 | 0.896 | 1.39 | 0.784 | 0.928 | 0.83 | 0.526 | 0.783 | 0.692 | 0.525 | 0.686 | 0.108 | 0.48 | 0.511 | 0.272 | 0.0837 | 0.842 |
| NCI-H520 | 0.738 | 0.741 | 0.587 | 0.7 | 0.553 | 0.782 | 0.727 | 0.737 | 0.623 | 0.768 | 0.708 | 0.669 | 0.722 | 0.488 | 0.42 | 0.475 | 0.447 | 0.412 | 0.45 | 0.717 |
| NCI-H596 | 0.95 | 0.885 | 0.671 | 0.909 | 0.681 | 1.02 | 0.902 | 0.923 | 0.948 | 0.622 | 0.595 | 0.511 | 0.567 | 0.415 | 0.873 | 0.858 | 0.887 | 0.754 | 0.491 | 0.886 |
